System: liver fibrosis gene panel (770 genes)
Test: Nanostring nCounter Fibrosis panel gene expression in liver of DEN-injected mice
Assay type: in vivo, mouse
Method: Nanostring Analysis. RNA was extracted from paired liver and tumor tissue from vehicle, Compound I-1 (100 mg/kg) and Compound I-32 (100 mg/kg) treated mice using an RNeasy kit (Qiagen, Calif., USA) as per manufacturer's protocol. All RNA samples passed the BioAnalyzer quality control test. The expression of target genes in liver and tumor were analyzed using the nCounter Fibrosis and Cancer Panel (NanoString Technologies, Inc., WA, USA), respectively according to manufacturer's protocol at the McMaster Genomics Facility. Technical and biological normalization against global geometric mean was performed in nSolver 4.0 software (NanoString Technologies). Technical normalization was performed in the nSolver software (version 4.0.70) by normalizing sample target raw counts to the geometric mean of positive control spike-ins. Biological normalization was performed by normalizing sample target raw counts to the geometric mean of selected housekeeping genes (Ppia, Nubp1, Nol7, Armh3, Rplp0, Cnot10, Pgk1, and Acad9). Pathway scores were calculated as the first principal component of the normalized expression values for all genes in each pathway and samples were compiled according to experimental groups to determine average pathway scores. Statistical significance was calculated between experimental groups using multiple t-tests and p-values were corrected for multiple comparisons using Benjamin-Hochberg false discovery rate.
Molecular analysis. To identify the pathways modulated in the liver and tumor tissue, nanostring analysis of fibrosis and cancer, pathways, respectively were completed in an n=8 mice treated with vehicle or Compound I-32 or Compound I-1 at 100 mg/kg.

CC(C)(CCCCc1ccc(CCCCC(C)(C)C(=O)O)cc1)C(=O)O [Compound I-1, 6-[4-(5-carboxy-5-methylhexyl)-phenyl]-2,2-dimethylhexanoic acid]
number of genes downregulated (100 mg/kg, 4 weeks): 170
number of genes upregulated (100 mg/kg, 4 weeks): 86
number of genes with altered expression relative to vehicle controls (770 genes measured) (100 mg/kg, 4 weeks): 256
Casp7 Log2FC (NM_00761-1, 100 mg/kg, vs vehicle): −0.522
Adh1 Log2FC (NM_007409, 100 mg/kg, vs vehicle): 0.603
Aldh3a2 Log2FC (NM_007437, 100 mg/kg, vs vehicle): 1.1
Ap1s1 Log2FC (NM_007457, 100 mg/kg, vs vehicle): 0.242
Apoa4 Log2FC (NM_007468, 100 mg/kg, vs vehicle): −4.07
Ctnnb1 Log2FC (NM_007614, 100 mg/kg, vs vehicle): −0.17
Cd36 Log2FC (NM_007643, 100 mg/kg, vs vehicle): 1.32
Cdh2 Log2FC (NM_007664, 100 mg/kg, vs vehicle): −0.164
Cebpa Log2FC (NM_007678, 100 mg/kg, vs vehicle): −0.363
Cfi Log2FC (NM_007686, 100 mg/kg, vs vehicle): −0.56
Chil1 Log2FC (NM_007695, 100 mg/kg, vs vehicle): 2.06
Col1a1 Log2FC (NM_007742, 100 mg/kg, vs vehicle): −1.21
Col1a2 Log2FC (NM_007743, 100 mg/kg, vs vehicle): −0.924
Cox6a1 Log2FC (NM_007748, 100 mg/kg, vs vehicle): 0.432
Cox7c Log2FC (NM_007749, 100 mg/kg, vs vehicle): 0.501
Crp Log2FC (NM_007768, 100 mg/kg, vs vehicle): −0.931
Cybb Log2FC (NM_007807, 100 mg/kg, vs vehicle): −0.522
Cyp7a1 Log2FC (NM_007824, 100 mg/kg, vs vehicle): −1.07
Eef2k Log2FC (NM_007908, 100 mg/kg, vs vehicle): 0.422
Ephx2 Log2FC (NM_007940, 100 mg/kg, vs vehicle): 0.794
F5 Log2FC (NM_007976, 100 mg/kg, vs vehicle): −0.363
Fas Log2FC (NM_007987, 100 mg/kg, vs vehicle): 0.528
Fasn Log2FC (NM_007988, 100 mg/kg, vs vehicle): 0.831
Slc37a4 Log2FC (NM_008063, 100 mg/kg, vs vehicle): −1.17
Gas1 Log2FC (NM_008086, 100 mg/kg, vs vehicle): −0.608
Gpc4 Log2FC (NM_008150, 100 mg/kg, vs vehicle): −0.469
Gpr65 Log2FC (NM_008152, 100 mg/kg, vs vehicle): −0.447
Hadh Log2FC (NM_008212, 100 mg/kg, vs vehicle): 0.28
Hmgcs2 Log2FC (NM_008256, 100 mg/kg, vs vehicle): 0.291
Hsd11b1 Log2FC (NM_008288, 100 mg/kg, vs vehicle): −1.33
Hsd17b4 Log2FC (NM_008292, 100 mg/kg, vs vehicle): 0.637
Hsp90ab1 Log2FC (NM_008302, 100 mg/kg, vs vehicle): 0.407
Irf8 Log2FC (NM_008320, 100 mg/kg, vs vehicle): −0.55
ll10ra Log2FC (NM_008348, 100 mg/kg, vs vehicle): −0.737
Irf1 Log2FC (NM_008390, 100 mg/kg, vs vehicle): −0.32
Itch Log2FC (NM_008395, 100 mg/kg, vs vehicle): −0.277
Lpl Log2FC (NM_008509, 100 mg/kg, vs vehicle): 1.98
Lrp1 Log2FC (NM_008512, 100 mg/kg, vs vehicle): −0.339
Cd180 Log2FC (NM_008533, 100 mg/kg, vs vehicle): −0.776
Masp1 Log2FC (NM_008555, 100 mg/kg, vs vehicle): −0.24
Anapc1 Log2FC (NM_008569, 100 mg/kg, vs vehicle): −0.378
Mmp12 Log2FC (NM_008605, 100 mg/kg, vs vehicle): −1.53
Mmp14 Log2FC (NM_008608, 100 mg/kg, vs vehicle): −0.522
Ncf4 Log2FC (NM_008677, 100 mg/kg, vs vehicle): −0.746
Nedd8 Log2FC (NM_008683, 100 mg/kg, vs vehicle): 0.139
Nfkb1 Log2FC (NM_008689, 100 mg/kg, vs vehicle): −0.241
Pcx Log2FC (NM_008797, 100 mg/kg, vs vehicle): −0.57
Plcb3 Log2FC (NM_008874, 100 mg/kg, vs vehicle): −0.321
Plg Log2FC (NM_008877, 100 mg/kg, vs vehicle): −0.393
Ppm1a Log2FC (NM_008910, 100 mg/kg, vs vehicle): 0.148
Map2k1 Log2FC (NM_008927, 100 mg/kg, vs vehicle): −0.145
Psmc3 Log2FC (NM_008948, 100 mg/kg, vs vehicle): 0.145
Rac1 Log2FC (NM_009007, 100 mg/kg, vs vehicle): −0.093
Saa1/2 Log2FC (NM_009117, 100 mg/kg, vs vehicle): −3.03
Scd1 Log2FC (NM_009127, 100 mg/kg, vs vehicle): 0.478
Sem1 Log2FC (NM_009169, 100 mg/kg, vs vehicle): 0.385
Spp1 Log2FC (NM_009263, 100 mg/kg, vs vehicle): −0.879
Ssr4 Log2FC (NM_009279, 100 mg/kg, vs vehicle): −0.321
Tgfbr1 Log2FC (NM_009370, 100 mg/kg, vs vehicle): −0.445
Traf2 Log2FC (NM_009422, 100 mg/kg, vs vehicle): −0.247
Tnfsf10 Log2FC (NM_009425, 100 mg/kg, vs vehicle): −0.823
Axl Log2FC (NM_009465, 100 mg/kg, vs vehicle): −0.493
Apoal Log2FC (NM_009692, 100 mg/kg, vs vehicle): −1.03
Apob Log2FC (NM_009693, 100 mg/kg, vs vehicle): −0.289
Atox1 Log2FC (NM_009720, 100 mg/kg, vs vehicle): 0.157
Bcl2l1 Log2FC (NM_009743, 100 mg/kg, vs vehicle): −0.344
Serping1 Log2FC (NM_009776, 100 mg/kg, vs vehicle): −0.631
C3ar1 Log2FC (NM_009779, 100 mg/kg, vs vehicle): −0.618
Calm1 Log2FC (NM_009790, 100 mg/kg, vs vehicle): −0.334
Casp12 Log2FC (NM_009808, 100 mg/kg, vs vehicle): −0.633
Casp3 Log2FC (NM_009810, 100 mg/kg, vs vehicle): −0.346
Casp6 Log2FC (NM_009811, 100 mg/kg, vs vehicle): 0.266
Casp8 Log2FC (NM_009812, 100 mg/kg, vs vehicle): 0.195
Serpinh1 Log2FC (NM_009825, 100 mg/kg, vs vehicle): −0.486
Cdk4 Log2FC (NM_009870, 100 mg/kg, vs vehicle): 0.26
Cfh Log2FC (NM_009888, 100 mg/kg, vs vehicle): −1.41
Cxcr4 Log2FC (NM_009911, 100 mg/kg, vs vehicle): −0.931
Ccr2 Log2FC (NM_009915, 100 mg/kg, vs vehicle): −1.18
Col3a1 Log2FC (NM_009930, 100 mg/kg, vs vehicle): −0.764
Csnk2b Log2FC (NM_009975, 100 mg/kg, vs vehicle): 0.114
Ctsd Log2FC (NM_009983, 100 mg/kg, vs vehicle): 0.297
Cyp4a10/31/32 Log2FC (NM_010011, 100 mg/kg, vs vehicle): 3.15
Fcer1g Log2FC (NM_010185, 100 mg/kg, vs vehicle): −0.406
Fga Log2FC (NM_010196, 100 mg/kg, vs vehicle): −0.563
Fn1 Log2FC (NM_010233, 100 mg/kg, vs vehicle): −0.666
Got2 Log2FC (NM_010325, 100 mg/kg, vs vehicle): 0.224
H2-Aa Log2FC (NM_010378, 100 mg/kg, vs vehicle): −0.78
H2-D1 Log2FC (NM_010380, 100 mg/kg, vs vehicle): −0.266
H2-Eb1 Log2FC (NM_010382, 100 mg/kg, vs vehicle): −0.772
H2-Dma Log2FC (NM_010386, 100 mg/kg, vs vehicle): −0.391
H2-DMB1 Log2FC (NM_010387, 100 mg/kg, vs vehicle): −0.938
H2-T23 Log2FC (NM_010398, 100 mg/kg, vs vehicle): −0.403
Hc Log2FC (NM_010406, 100 mg/kg, vs vehicle): −0.325
Hif1a Log2FC (NM_010431, 100 mg/kg, vs vehicle): 0.358
Hsp90aa1 Log2FC (NM_010480, 100 mg/kg, vs vehicle): 0.693
Icam1 Log2FC (NM_010493, 100 mg/kg, vs vehicle): −0.371
Ikbkb Log2FC (NM_010546, 100 mg/kg, vs vehicle): −0.395
Ilk Log2FC (NM_010562, 100 mg/kg, vs vehicle): −0.143
Itgb1 Log2FC (NM_010578, 100 mg/kg, vs vehicle): 0.106
Fabp5 Log2FC (NM_010634, 100 mg/kg, vs vehicle): 1.1
Psmb8 Log2FC (NM_010724, 100 mg/kg, vs vehicle): −1.07
Loxl1 Log2FC (NM_010729, 100 mg/kg, vs vehicle): −1.1
Lyn Log2FC (NM_010747, 100 mg/kg, vs vehicle): −0.32
Smad2 Log2FC (NM_010754, 100 mg/kg, vs vehicle): 0.246
Myd88 Log2FC (NM_010851, 100 mg/kg, vs vehicle): 0.261
Nid1 Log2FC (NM_010917, 100 mg/kg, vs vehicle): −0.733
P4hb Log2FC (NM_011032, 100 mg/kg, vs vehicle): −0.842
Pek1 Log2FC (NM_011044, 100 mg/kg, vs vehicle): −1.88
Prkacb Log2FC (NM_011100, 100 mg/kg, vs vehicle): −0.158
Pltp Log2FC (NM_011125, 100 mg/kg, vs vehicle): 1.39
Ppard Log2FC (NM_011145, 100 mg/kg, vs vehicle): −0.466
Pparg Log2FC (NM_011146, 100 mg/kg, vs vehicle): −0.615
Prkdc Log2FC (NM_011159, 100 mg/kg, vs vehicle): −0.568
Pros1 Log2FC (NM_011173, 100 mg/kg, vs vehicle): −0.22
Lgmn Log2FC (NM_011175, 100 mg/kg, vs vehicle): −0.499
Psmb7 Log2FC (NM_011187, 100 mg/kg, vs vehicle): 0.204
Ptprc Log2FC (NM_011210, 100 mg/kg, vs vehicle): −0.49
Rein Log2FC (NM_011261, 100 mg/kg, vs vehicle): −0.45
S100a4 Log2FC (NM_011311, 100 mg/kg, vs vehicle): −1.28
Serpinf1 Log2FC (NM_011340, 100 mg/kg, vs vehicle): −0.18
Sod1 Log2FC (NM_011434, 100 mg/kg, vs vehicle): 0.352
Srebf1 Log2FC (NM_011480, 100 mg/kg, vs vehicle): −0.608
Skp1a Log2FC (NM_011543, 100 mg/kg, vs vehicle): 0.227
Thbs2 Log2FC (NM_011581, 100 mg/kg, vs vehicle): −0.831
Timp2 Log2FC (NM_011594, 100 mg/kg, vs vehicle): −0.609
Tjp2 Log2FC (NM_011597, 100 mg/kg, vs vehicle): 0.204

— US11730712B2, “Functionalized long-chain hydrocarbon mono- and di-carboxylic acids and derivatives thereof, and their use for the prevention or treatment of disease” (ESPERVITA THERAPEUTICS, INC., priority 2021, dated 2023)
